According to patent US20250313546A1, “NUCLEIC ACID BINDERS” (UNIVERSITY OF STRATHCLYDE, priority 2022, published 2025):
≈ marks a conversion by molar mass, not a printed value.

Legend:
[1] = tested on: Staphylococcus aureus (ATCC 43300); assay: Antibacterial MIC, broth microdilution (CLSI); format: cell-based; details: for MIC80: Staphylococcus aureus, ATCC43300, read-out: MIC80 S. aureus; for S. aureus Selectivity Indices, Group: SI, IC50 (μM)/MIC80 (μM), HEK293 cytotoxicity
[2] = tested on: Escherichia coli (ATCC 25922); assay: Antibacterial MIC, broth microdilution (CLSI); format: cell-based; details: for MIC80: Escherichia coli, ATCC25922, read-out: MIC80 E. coli
[3] = tested on: PolyAU double stranded RNA; assay: Fluorescence intercalator displacement (FID) assay, SYBR-safe probe; details: 20 μM compound, 30° C., lower % = stronger binding
Experimental: (§1) The ability of compounds of the invention to bind to DNA and RNA was assessed using a fluorescence intercalator displacement assay. Genomic double stranded DNA (salmon) or PolyAU double stranded RNA is treated with probe molecule (Sybr-Safe) that increases its fluorescence upon binding to nucleic acids.
(§2) polyAU RNA (Polyadenylic acid—Polyuridylic acid sodium salt, double-stranded homopolymer, P1537, Merck) or genomic DNA (Deoxyribonucleic acid sodium salt from salmon testes, D1626, Merck) was dissolved in 1 mM pH 7.4 phosphate buffer (containing 0.27 mM potassium chloride, 13.7 mM sodium chloride) to a concentration of 1 mg/mL in, SybrSafe (SYBR® Safe DNA Gel Stain, ×10,000 in DMSO, S33102 Invitrogen) was used as supplied by the manufacturer in DMSO, and compounds of the invention were prepared as 10 mM stocks in DMSO. These stock solutions were diluted appropriately with each other and 1 mM phosphate buffer to give test solutions comprised of 20 μM compound of the invention, 12500-fold dilution of SybrSafe and 3.76 ng/mL RNA/DNA. Control solutions of RNA/DNA and SybrSafe, RNA/DNA, and SybrSafe at these concentrations were also prepared. Test and control solutions were heated to 30° C. and the fluorescence of each solution was measured using the SYBER filter setting of a StepOnePlus using melt analysis mode (StepOne Software v2.3). The reduction of fluorescence due to the binding of the compound of the invention to the RNA/DNA was calculated as a normalised percentage based on the fluorescence measured due to the control with SybrSafe and RNA/DNA as maximum and the control with only SybrSafe as minimum.
(§3) A reduction in normalised % is indicative of probe displacement and thus strong nucleic acid binding.

[4] = tested on: Genomic double stranded DNA (salmon); assay: as above; details: 20 μM compound, 30° C., lower % = stronger binding
Experimental: as §1, §2, §3

[5] = tested on: Enterococcus faecalis (ATCC 51299); assay: Antibacterial MIC, broth microdilution (CLSI); format: cell-based; details: for MIC80: Enterococcus faecalis, ATCC51299, read-out: MIC80 E. faecalis; for E. faecalis Selectivity Indices, Group: SI, IC50 (μM)/MIC80 (μM), HEK293 cytotoxicity
T. vaginalis = assay: Trichomonas resorufin assay; format: cell-based; details: for T. vaginalis Selectivity Indices, Group: SI, IC50 (μM)/IC50 (μM), HEK293 cytotoxicity; for IC50: Trichomonas vaginalis, read-out: IC50 T. vaginalis

Q: `CN(C)c1ccc(/C=C/c2ccc(C(=O)Nc3c[nH]c(C(=O)Nc4cc(C(=O)NCCN5CCOCC5)n(C)c4)c3)cn2)cc1` [IIIb2, (E)-6-(4-(dimethylamino)styryl)-N-(5-((1-methyl-5-((2-morpholinoethyl)carbamoyl)-1H-pyrrol-3-yl)carbamoyl)-1H-pyrrol-3-yl)nicotinamide] was tested. Which MIC80 [1] did it give?
A: 5 to 25 µM (≈ 3.05 to 15.3 µg/mL)

Q: What about the MIC80 [2] of the same molecule?
A: > 100 µM

Q: And the “% Normalised Fluorescence with polyAU RNA” value [3]?
A: 85%

Q: What about the “% Normalised Fluorescence with gDNA” value [4] of the same molecule?
A: 31%

Q: And the MIC80 [5]?
A: > 100 µM

Q: With `CCNC(=O)c1cc(NC(=O)c2cc(NC(=O)c3ccc(/C=C/c4cnc5ccccc5c4)cc3)cn2C)cn1C` [IVa6, (E)-N-ethyl-1-methyl-4-(1-methyl-4-(4-(2-(quinolin-3-yl)vinyl)benzamido)-1H-pyrrole-2-carboxamido)-1H-pyrrole-2-carboxamide] as the molecule, how does the MIC80 [1] read?
A: < 5 µM

Q: What about the “T. vaginalis Selectivity Indices, Group” value (T. vaginalis; Amides) of the same molecule?
A: B (Group B: 0.25 < SI <= 0.5)

Q: And the IC50 (T. vaginalis)?
A: 1 to 5 µM

Q: What about the MIC80 [2] of the same molecule?
A: > 100 µM

Q: What about the MIC80 [5] of the same molecule?
A: < 5 µM

Q: And the “E. faecalis Selectivity Indices, Group” value ([5]; Amides)?
A: B (Group B: 0.4 < SI <= 1.5)

Q: For `Cn1cc(NC(=O)c2cc(NC(=O)c3ccc(/C=C/c4cnc5ccccc5c4)cc3)cn2C)cc1C(=O)NCCCCN1CCCCC1` [IVa11, (E)-1-methyl-4-(1-methyl-4-(4-(2-(quinolin-3-yl)vinyl)benzamido)-1H-pyrrole-2-carboxamido)-N-(4-(piperidin-1-yl)butyl)-1H-pyrrole-2-carboxamide], which MIC80 [1] is on record?
A: 5 to 25 µM (≈ 3.29 to 16.4 µg/mL)

Q: What about the MIC80 [2] of the same molecule?
A: > 100 µM

Q: What about the “% Normalised Fluorescence with polyAU RNA” value [3] of the same molecule?
A: 68%

Q: And the “% Normalised Fluorescence with gDNA” value [4]?
A: 42%

Q: What about the MIC80 [5] of the same molecule?
A: 5 to 25 µM (≈ 3.29 to 16.4 µg/mL)

Q: Which results are given for `Cn1cc(NC(=O)c2cc(NC(=O)c3ccc(/C=C/c4cnc5ccccc5c4)cc3)cn2C)cc1C(=O)NCCCCN1CCCC1` [IVa12, (E)-1-methyl-4-(1-methyl-4-(4-(2-(quinolin-3-yl)vinyl)benzamido)-1H-pyrrole-2-carboxamido)-N-(4-(pyrrolidin-1-yl)butyl)-1H-pyrrole-2-carboxamide]?
A: MIC80 [1]: 5 to 25 µM (≈ 3.22 to 16.1 µg/mL); MIC80 [2]: > 100 µM; % Normalised Fluorescence with polyAU RNA [3]: 71%; % Normalised Fluorescence with gDNA [4]: 50%; MIC80 [5]: < 5 µM

Q: What does the source list for `CNC(=O)c1cc(NC(=O)c2cc(NC(=O)c3ccc(/C=C/c4ccc(N(C)C)cc4)nc3)cn2C)cn1C` [IVa13, (E)-6-(4-(dimethylamino)styryl)-N-(1-methyl-5-((1-methyl-5-(methylcarbamoyl)-1H-pyrrol-3-yl)carbamoyl)-1H-pyrrol-3-yl)nicotinamide]?
A: MIC80 [1]: < 5 µM; MIC80 [2]: > 100 µM; % Normalised Fluorescence with polyAU RNA [3]: 83%; % Normalised Fluorescence with gDNA [4]: 80%; MIC80 [5]: < 5 µM

Q: How did the MIC80 [1] turn out when `CN(C)c1ccc(/C=C/c2ccc(C(=O)Nc3cc(C(=O)Nc4cc(C(=O)NCCCCN5CCCCC5)n(C)c4)n(C)c3)cn2)cc1` [IVa14, (E)-6-(4-(dimethylamino)styryl)-N-(1-methyl-5-((1-methyl-5-((4-(piperidin-1-yl)butyl)carbamoyl)-1H-pyrrol-3-yl)carbamoyl)-1H-pyrrol-3-yl)nicotinamide] was run?
A: 5 to 25 µM (≈ 3.25 to 16.3 µg/mL)

Q: And the MIC80 [2]?
A: > 100 µM

Q: And the “% Normalised Fluorescence with polyAU RNA” value [3]?
A: 12%

Q: What about the “% Normalised Fluorescence with gDNA” value [4] of the same molecule?
A: 19%

Q: And the MIC80 [5]?
A: 25 to 100 µM (≈ 16.3 to 65.1 µg/mL)

Q: Which results are given for `Cn1cc(NC(=O)c2ccc(/C=C/c3cnc4ccccc4c3)cc2)cc1C(=O)Nc1cc(C(=O)N2CCCCC2)n(C)c1` [IVb1, (E)-1-methyl-N-(1-methyl-5-(piperidine-1-carbonyl)-1H-pyrrol-3-yl)-4-(4-(2-(quinolin-3-yl)vinyl)benzamido)-1H-pyrrole-2-carboxamide]?
A: MIC80 [1]: 25 to 100 µM (≈ 14.7 to 58.7 µg/mL); IC50 (T. vaginalis): 5 to 50 µM; MIC80 [2]: > 100 µM; MIC80 [5]: > 100 µM

Q: Which results are given for `Cn1cc(NC(=O)c2ccc(/C=C/c3cnc4ccccc4c3)cc2)cc1C(=O)Nc1cc(C(=O)N2CCSCC2)n(C)c1` [IVb2, (E)-1-methyl-N-(1-methyl-5-(thiomorpholine-4-carbonyl)-1H-pyrrol-3-yl)-4-(4-(2-(quinolin-3-yl)vinyl)benzamido)-1H-pyrrole-2-carboxamide]?
A: MIC80 [1]: 25 to 100 µM (≈ 15.1 to 60.5 µg/mL); IC50 (T. vaginalis): 5 to 50 µM; MIC80 [2]: > 100 µM; MIC80 [5]: > 100 µM

Q: How did the MIC80 [1] turn out when `Cn1cc(NC(=O)c2ccc(/C=C/c3cnc4ccccc4c3)cc2)cc1C(=O)Nc1cc(C(=O)N2CCCCCC2)n(C)c1` [IVb3, (E)-N-(5-(azepane-1-carbonyl)-1-methyl-1H-pyrrol-3-yl)-1-methyl-4-(4-(2-(quinolin-3-yl)vinyl)benzamido)-1H-pyrrole-2-carboxamide] was run?
A: 25 to 100 µM (≈ 15 to 60.1 µg/mL)

Q: And the IC50 (T. vaginalis)?
A: 5 to 50 µM

Q: What about the MIC80 [2] of the same molecule?
A: > 100 µM

Q: What about the MIC80 [5] of the same molecule?
A: > 100 µM

Q: For `CCCCCCCCCCCCC[N+](C)(C)CCNC(=O)c1cc(NC(=O)c2cc(NC(=O)c3ccc(/C=C/c4cnc5ccccc5c4)cc3)cn2C)cn1C` [Ic12, (E)-N,N-dimethyl-N-(2-(1-methyl-4-(1-methyl-4-(4-(2-(quinolin-3-yl)vinyl)benzamido)-1H-pyrrole-2-carboxamido)-1H-pyrrole-2-carboxamido)ethyl)tridecan-1-aminium], which “% Normalised Fluorescence with polyAU RNA” value [3] is on record?
A: 38%

Q: And the “% Normalised Fluorescence with gDNA” value [4]?
A: 94%

Q: For `CCCCCCCCCCCCCCCCC[N+](C)(C)CCNC(=O)c1cc(NC(=O)c2cc(NC(=O)c3ccc(/C=C/c4cnc5ccccc5c4)cc3)cn2C)cn1C` [Ic16, (E)-N,N-dimethyl-N-(2-(1-methyl-4-(1-methyl-4-(4-(2-(quinolin-3-yl)vinyl)benzamido)-1H-pyrrole-2-carboxamido)-1H-pyrrole-2-carboxamido)ethyl)heptadecan-1-aminium], which “% Normalised Fluorescence with polyAU RNA” value [3] is on record?
A: 64%

Q: And the “% Normalised Fluorescence with gDNA” value [4]?
A: 98%

Q: How did the IC50 (T. vaginalis) turn out when `CCCCCCCCCCCCCCCCCC[N+](C)(C)CCNC(=O)c1cc(NC(=O)c2cc(NC(=O)c3ccc(/C=C/c4cnc5ccccc5c4)cc3)cn2C)cn1C` [Ic17, (E)-N,N-dimethyl-N-(2-(1-methyl-4-(1-methyl-4-(4-(2-(quinolin-3-yl)vinyl)benzamido)-1H-pyrrole-2-carboxamido)-1H-pyrrole-2-carboxamido)ethyl)octadecan-1-aminium] was run?
A: > 50 µM

Q: `CCCCCC[N+]1(CCNC(=O)c2cc(NC(=O)c3cc(NC(=O)c4ccc(/C=C/c5cnc6ccccc6c5)cc4)cn3C)cn2C)CCOCC1` [Id1, (E)-4-hexyl-4-(2-(1-methyl-4-(1-methyl-4-(4-(2-(quinolin-3-yl)vinyl)benzamido)-1H-pyrrole-2-carboxamido)-1H-pyrrole-2-carboxamido)ethyl)morpholin-4-ium] was tested. Which MIC80 [1] did it give?
A: < 5 µM

Q: And the MIC80 [2]?
A: > 100 µM

Q: What about the MIC80 [5] of the same molecule?
A: > 100 µM

Q: Which results are given for `CCCCCCC[N+]1(CCNC(=O)c2cc(NC(=O)c3cc(NC(=O)c4ccc(/C=C/c5cnc6ccccc6c5)cc4)cn3C)cn2C)CCOCC1` [Id2, (E)-4-heptyl-4-(2-(1-methyl-4-(1-methyl-4-(4-(2-(quinolin-3-yl)vinyl)benzamido)-1H-pyrrole-2-carboxamido)-1H-pyrrole-2-carboxamido)ethyl)morpholin-4-ium]?
A: MIC80 [1]: < 5 µM; MIC80 [2]: > 100 µM; MIC80 [5]: > 100 µM

Q: What does the source list for `Cn1cc(NC(=O)c2cc(NC(=O)c3ccc(/C=C/c4ccc(C(F)(F)F)cc4)cc3)cn2C)cc1C(=O)NCCC(=N)N` [Ref-6, reference compound]?
A: S. aureus Selectivity Indices, Group ([1]; Alkyl Amidines and NH Pyrroles): A (Group A: SI < 3); T. vaginalis Selectivity Indices, Group (T. vaginalis; Alkyl Amidines and NH Pyrroles): A (Group A: SI < 8); E. faecalis Selectivity Indices, Group ([5]; Alkyl Amidines and NH Pyrroles): A (Group A: SI < 3)

Q: For `CN(C)CCNC(=O)c1cc(NC(=O)c2cc(NC(=O)c3ccc(/C=C/c4cnc5ccccc5c4)cc3)cn2C)cn1C` [Ref-7, (E)-N-(2-(dimethylamino)ethyl)-1-methyl-4-(1-methyl-4-(4-(2-(quinolin-3-yl)vinyl)benzamido)-1H-pyrrole-2-carboxamido)-1H-pyrrole-2-carboxamide, reference compound], which “S. aureus Selectivity Indices, Group” value ([1]; Alkyl Amidines and NH Pyrroles) is on record?
A: A (Group A: SI < 3)

Q: What about the “S. aureus Selectivity Indices, Group” value ([1]; Quaternary ammoniums) of the same molecule?
A: A (Group A: SI < 2)

Q: And the “T. vaginalis Selectivity Indices, Group” value (T. vaginalis; Alkyl Amidines and NH Pyrroles)?
A: A (Group A: SI < 8)

Q: And the “T. vaginalis Selectivity Indices, Group” value (T. vaginalis; Quaternary ammoniums)?
A: A (Group A: SI < 0.8)

Q: What about the “E. faecalis Selectivity Indices, Group” value ([5]; Alkyl Amidines and NH Pyrroles) of the same molecule?
A: A (Group A: SI < 3)

Q: And the “E. faecalis Selectivity Indices, Group” value ([5]; Quaternary ammoniums)?
A: A (Group A: SI < 0.7)

Q: For “N-(5-((5-(((Z)-3-(ethylamino)-3-(ethylimino)propyl)carbamoyl)-1-methyl-1H-pyrrol-3-yl)carbamoyl)-1-methyl-1H-pyrrol-3-yl)-6-((E)-3-methoxystyryl)nicotinamide [Ia26]”, which “MIC80 S. aureus” value ([1]; MIC at 80% inhibition, ATCC 43300) is on record?
A: * (* means 25 μM < MIC80 <= 100 μM)

Q: And the “MIC80 E. coli” value ([2]; MIC at 80% inhibition, ATCC 25922)?
A: — (— means MIC80 > 100 μM)

Q: And the “MIC80 E. faecalis” value ([5]; MIC at 80% inhibition, ATCC 51299)?
A: — (— means MIC80 > 100 μM)
